Assay results published in patent US20230225987A1, “TOPICAL PHARMACEUTICAL COMPOSITIONS” (Dermavant Sciences GmbH, priority 2020, published 2023).

Tests used:
[1] = Gao et al., Journal of Polymer Research 2011; cited from earlier work
[2] = Pre-formulation solubility of DMVT-505 in excipients and solvent systems; type: physicochemical
Experimental: (§1) Pre-formulation experiments were performed to understand the solubility and stability of the drug in excipients. In relation to drug/excipient compatibility, DMVT-505 was stable for 2 weeks (peak purity>98%) in most excipients at 40° C., with the exception of MCTs and DMI, which may be due to oxidation. Based on the pre-formulation data, aqueous-based solvent systems were designed for WS3. Further formulations were prepared combining suitable phases developed during all the workstreams to obtain formulations to limit the suspected drug partitioning between the aqueous and oil phases (WS2/3/4).
Experiments conducted on the stability of DMVT-505 in individual excipients also allowed for the identification of suitable alternative oil and aqueous phase excipients, and this information was used during the formulation development as the basis of solvent system design.
For WS3, aqueous phases were designed and DMVT-505 solubility in such systems was determined, ahead of formulation development where formulations were sequentially developed, tested and optimized using accelerated physical stability data generated primarily via the LUMiSizer platform. […] Additionally, combined aspects of each workstream (WS2/3/4) were developed with optimal physical stability and to limit the partitioning of the drug between the oil and aqueous phases.
For WS2, oil phase solvent systems were designed and DMVT-505 solubility in such systems was determined, ahead of formulation development where formulations were sequentially developed, tested and optimized using accelerated physical stability data generated primarily via the LUMiSizer platform. […] A number of emulsifiers and surfactant systems (WS4) were screened in order to achieve a formulation which was, theoretically, as stable as CR01. To do this, WS4 formulations were rationally designed, prepared and tested in a similar fashion to the previous workstreams. Additionally, combined aspects of each workstream (WS2/3/4) were developed with optimal physical stability and to limit the partitioning of the drug between the oil and aqueous phases.

[3] = Drug/excipient compatibility, 2 weeks at 40° C.; type: physicochemical; settings: 2 weeks in most excipients at 40° C., with the exception of MCTs and DMI
Experimental: as §1
as §1, with “oil-based” for “aqueous-based”, “WS2. Formulations based on these solvent systems, along with formulations with alternative emulsifiers (WS4) were developed.” for “WS3.”

[4] = 28-day twice daily topical administration: toxicokinetics, skin concentrations, dermal irritancy and toxicity (Example 7); design: species or system Gottingen minipigs; settings: minipig, in vivo
Experimental: Following dose application on each dosing day, the dose sites were semi-occluded for approximately 20±1 hours from the first dose and then gently washed before the next dose was applied.

[5] = Nonclinical study, subcutaneous 3 mg/kg/day, 13 weeks (NOAEL); type: in vivo; settings: Rat
AhR target gene, cyp1a1 = settings: primary human keratinocytes, human or rodent leukocytes
[6] = test system: AhR pathway in intestinal human colon adenocarcinoma

SMILES: CC(C)c1c(O)cc(/C=C/c2ccccc2)cc1O [3,5-Dihydroxy-4-isopropyl-trans-stilbene]
- sensitivity to oxidation and photo degradation [1]: sensitive to oxidation and photo degradation
- solubility in diisopropyl adipate [2]: good solubilizer
- solubility in mineral oil [2]: non-solvent
- solubility in water [2]: not soluble in water
- solubility ([2]; in fixed oils, fatty alcohols, glycols and volatile solvent): > 7 % w/w
- peak purity [3]: > 98%
- dermal irritation at the dose site [4]: no test article-related dermal irritation
- systemic toxicity [4]: no systemic toxicity
- AUC NOAEL [5]: 99 ng·h/mL
- expression of the AhR target gene cyp1a1 (AhR target gene, cyp1a1): induce the expression
- AhR pathway activity [6]: activator
